From patent US20240360157A1, “TYK2 INHIBITORS” (BIOGEN MA INC., priority 2021, published 2024)

Key:
Type in all cases: biochemical
[1] = biological target: human JAK3 catalytic kinase (JH1) domain (Homo sapiens (Human), UniProt P52333); experiment: ADP-Glo Kinase Assay, recombinant JAK3 catalytic kinase (JH1) domain; details: recombinant JH1 domain 0.3 nM, 4 μM ATP, JAK3-974 peptide, mean, read-out: JAK3 biochem IC50 (nM) Mean
Outline: (§1)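 Reactions ran 100 min with 50 μM substrate peptide (JAK3-342 for JAK1 at 4 nM enzyme; JAK3-974 for JAK2 0.2 nM, JAK3 0.3 nM, TYK2 2 nM), and ADP formed was read by ADP-Glo luminescence. Eleven-point 3-fold series from 10 or 1 μM; IC50 fitted by 4-parameter logistic model.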

[2] = biological target: human JAK2 catalytic kinase (JH1) domain (Homo sapiens (Human), UniProt O60674); experiment: ADP-Glo Kinase Assay, recombinant JAK2 catalytic kinase (JH1) domain; details: recombinant JH1 domain 0.2 nM, 15 μM ATP, JAK3-974 peptide, mean, read-out: JAK2 biochem IC50 (nM) Mean
Chain of human JAK2 catalytic kinase (JH1) domain (O60674 849-1124): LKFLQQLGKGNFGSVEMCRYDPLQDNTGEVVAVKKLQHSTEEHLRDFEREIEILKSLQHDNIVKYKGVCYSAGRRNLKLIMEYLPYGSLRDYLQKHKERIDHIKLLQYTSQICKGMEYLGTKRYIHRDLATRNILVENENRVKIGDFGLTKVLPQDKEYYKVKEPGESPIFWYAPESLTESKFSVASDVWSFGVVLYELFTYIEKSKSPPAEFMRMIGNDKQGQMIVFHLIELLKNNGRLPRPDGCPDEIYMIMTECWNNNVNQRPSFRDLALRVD
Outline: as §1

[3] = biological target: human TYK2 catalytic kinase (JH1) domain (Homo sapiens (Human), UniProt P29597); experiment: ADP-Glo Kinase Assay, recombinant TYK2 catalytic kinase (JH1) domain; details: recombinant JH1 domain 2 nM, 10 μM ATP, JAK3-974 peptide, mean, read-out: TYK2 biochem IC50 (nM) Mean
Chain of human TYK2 catalytic kinase (JH1) domain (P29597 897-1176): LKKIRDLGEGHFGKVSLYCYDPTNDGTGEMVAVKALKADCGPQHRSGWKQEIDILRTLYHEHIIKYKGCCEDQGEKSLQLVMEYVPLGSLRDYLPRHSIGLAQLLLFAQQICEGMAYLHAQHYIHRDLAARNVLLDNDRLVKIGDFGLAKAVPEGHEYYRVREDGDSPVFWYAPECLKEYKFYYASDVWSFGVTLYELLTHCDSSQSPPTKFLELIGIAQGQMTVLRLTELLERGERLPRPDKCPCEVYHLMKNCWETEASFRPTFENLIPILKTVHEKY
Outline: as §1

[4] = biological target: human JAK1 catalytic kinase (JH1) domain (Homo sapiens (Human), UniProt P23458); experiment: ADP-Glo Kinase Assay, recombinant JAK1 catalytic kinase (JH1) domain; details: recombinant JH1 domain 4 nM, 35 μM ATP, JAK3-342 peptide, mean, read-out: JAK1 biochem IC50 (nM) Mean
Chain of human JAK1 catalytic kinase (JH1) domain (P23458 875-1153): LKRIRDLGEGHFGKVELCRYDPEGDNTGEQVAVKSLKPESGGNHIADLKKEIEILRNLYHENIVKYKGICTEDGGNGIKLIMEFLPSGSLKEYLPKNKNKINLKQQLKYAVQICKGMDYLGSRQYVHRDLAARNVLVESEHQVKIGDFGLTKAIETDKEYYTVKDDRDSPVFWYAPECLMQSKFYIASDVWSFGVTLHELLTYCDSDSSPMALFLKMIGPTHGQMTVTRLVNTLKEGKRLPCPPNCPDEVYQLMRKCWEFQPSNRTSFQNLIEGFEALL
Outline: as §1

Chain of human JAK3 catalytic kinase (JH1) domain (P52333 822-1111): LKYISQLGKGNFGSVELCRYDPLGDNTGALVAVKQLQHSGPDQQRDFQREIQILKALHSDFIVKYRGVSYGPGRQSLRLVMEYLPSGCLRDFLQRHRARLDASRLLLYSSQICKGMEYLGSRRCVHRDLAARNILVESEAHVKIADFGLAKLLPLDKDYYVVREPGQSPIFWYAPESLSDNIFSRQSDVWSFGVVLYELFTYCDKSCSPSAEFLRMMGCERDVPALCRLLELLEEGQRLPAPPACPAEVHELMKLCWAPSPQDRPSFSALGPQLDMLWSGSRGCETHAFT

SMILES	IC50 [1] [nM]	IC50 [2] [nM]	IC50 [3] [nM]	IC50 [4] [nM]
O=C([C@@H]1C[C@H]1F)N1C2CCC1CN(c1ccnn3cc([C@@H]4CC4(F)F)cc13)C2 (single isomer, unassigned) [Example 136]	≥ 10000	≥ 10000	381	6180
O=C(C1CC(F)(F)C1)N1C2CCC1CN(c1ncnn3cc(-c4cnn(C(F)F)c4)cc13)C2 [Example 55, (3,3-difluorocyclobutyl)(3-(6-(1-(difluoromethyl)-1H-pyrazol-4-yl)pyrrolo[2,1-f][1,2,4]triazin-4-yl)-3,8-diazabicyclo[3.2.1]octan-8-yl)methanone]	8580	7180	290	2790
Cn1cc(-c2cc3c(N4CC5CCC(C4)N5C(=O)C4CC4)ncnn3c2)c(F)n1 [Example 145]	6520	6020	202	2360
Cn1cc(-c2cc3c(N4CC5CCC(C4)N5C(=O)C4CC4)ccnc3[nH]2)cn1 [Example 236, cyclopropyl(3-(2-(1-methyl-1H-pyrazol-4-yl)-1H-pyrrolo[2,3-b]pyridin-4-yl)-3,8-diazabicyclo[3.2.1]octan-8-yl)methanone]	253	99	3.8	145
Cn1cc(-c2cc3c(N4CC5CCC(C4)N5C(=O)CC(F)(F)F)ncnn3c2)cn1 [Example 59, 3,3,3-trifluoro-1-(3-(6-(1-methyl-1H-pyrazol-4-yl)pyrrolo[2,1-f][1,2,4]triazin-4-yl)-3,8-diazabicyclo[3.2.1]octan-8-yl)propan-1-one]	6940	9730	652	3500
Cc1cc(-c2cc3c(N4CC5CCC(C4)N5C(=O)[C@@H]4C[C@H]4F)ncnc3[nH]2)ccn1 [Example 230, ((1S,2R)-2-fluorocyclopropyl)(3-(6-(2-methylpyridin-4-yl)-7H-pyrrolo[2,3-d]pyrimidin-4-yl)-3,8-diazabicyclo[3.2.1]octan-8-yl)methanone]	742	218	8.2	91
Cn1cc(-c2cc3c(N4CC5CCC(C4)N5C(=O)[C@H]4C[C@H]4C#N)ncnn3c2)cn1 (racemic) [Example 65, Rac-(1R,2S)-2-(3-(6-(1-methyl-1H-pyrazol-4-yl)pyrrolo[2,1-f][1,2,4]triazin-4-yl)-3,8-diazabicyclo[3.2.1]octane-8-carbonyl)cyclopropane-1-carbonitrile]	6790	9840	1210	6090
Cn1cc(-c2nc3c(N4CC5CCC(C4)N5C(=O)[C@@H]4C[C@H]4F)ccnc3[nH]2)c(F)n1 [Example 216, (3-(2-(3-fluoro-1-methyl-1H-pyrazol-4-yl)-3H-imidazo[4,5-b]pyridin-7-yl)-3,8-diazabicyclo[3.2.1]octan-8-yl)((1S,2R)-2-fluorocyclopropyl)methanone]	235	14	1.9	41
CC(C)C(=O)N1C2CCC1CN(c1ncnn3cc(-c4cnn(C)c4)cc13)C2 [Example 58, 2-methyl-1-(3-(6-(1-methyl-1H-pyrazol-4-yl)pyrrolo[2,1-f][1,2,4]triazin-4-yl)-3,8-diazabicyclo[3.2.1]octan-8-yl)propan-1-one]	10000	10000	960	10000
O=C([C@@H]1C[C@H]1F)N1C2CCC1CN(c1ccnn3cc(-c4cnn(C(F)(F)F)c4)cc13)C2 [Example 18, ((1S,2R)-2-fluorocyclopropyl)(3-(6-(1-(trifluoromethyl)-1H-pyrazol-4-yl)pyrrolo[1,2-b]pyridazin-4-yl)-3,8-diazabicyclo[3.2.1]octan-8-yl)methanone]	391	33	1.5	38
O=C([C@@H]1C[C@H]1F)N1C2CCC1CN(c1ccnc3[nH]c(N4CCOCC4)nc13)C2 [Example 212, ((1S,2R)-2-fluorocyclopropyl)(3-(2-morpholino-3H-imidazo[4,5-b]pyridin-7-yl)-3,8-diazabicyclo[3.2.1]octan-8-yl)methanone]	4220	650	30.5	322
CNc1cc(-c2cc3c(N4CC5CCC(C4)N5C(=O)[C@@H]4C[C@H]4F)ncnn3c2)ccn1 [Example 94, ((1S,2R)-2-fluorocyclopropyl)(3-(6-(2-(methylamino)pyridin-4-yl)pyrrolo[2,1-f][1,2,4]triazin-4-yl)-3,8-diazabicyclo[3.2.1]octan-8-yl)methanone]	2940	590	18.6	230
Cn1cc(-c2cc3c(N4CC5CCC(C4)N5C(=O)[C@H]4C[C@@H]4F)ncnn3c2)cn1 (racemic) [Example 61, Rac-((1R,2S)-2-fluorocyclopropyl)(3-(6-(1-methyl-1H-pyrazol-4-yl)pyrrolo[2,1-f][1,2,4]triazin-4-yl)-3,8-diazabicyclo[3.2.1]octan-8-yl)methanone]	3760	1870	37.7	992
Cn1cc(-c2cc3c(N4CC5CCC(C4)N5C(=O)CC#N)ncnn3c2)cn1 [Example 62, 3-(3-(6-(1-methyl-1H-pyrazol-4-yl)pyrrolo[2,1-f][1,2,4]triazin-4-yl)-3,8-diazabicyclo[3.2.1]octan-8-yl)-3-oxopropanenitrile]	6830	8710	351	860
Cn1cnc(-c2cc3c(N4CC5CCC(C4)N5C(=O)C4CC4)ncnn3c2)c1 [Example 143, Cyclopropyl(3-(6-(1-methyl-1H-imidazol-4-yl)pyrrolo[2,1-f][1,2,4]triazin-4-yl)-3,8-diazabicyclo[3.2.1]octan-8-yl)methanone]	9690	9940	533	10000
O=C(C1CC1)N1C2CCC1CN(c1ncnn3cc(-c4cnn(C(F)F)c4)cc13)C2 [Example 150]	5620	3370	190	1850
CC1(C(=O)N2C3CCC2CN(c2ncnn4cc(-c5cnn(C(F)F)c5)cc24)C3)CCC1 [Example 52, (3-(6-(1-(difluoromethyl)-1H-pyrazol-4-yl)pyrrolo[2,1-f][1,2,4]triazin-4-yl)-3,8-diazabicyclo[3.2.1]octan-8-yl)(1-methylcyclobutyl)methanone]	9370	9080	425	6480
COc1cnc(-c2cc3c(N4CC5CCC(C4)N5C(=O)[C@@H]4C[C@H]4F)ccnn3c2)cn1 [Example 124, ((1S,2R)-2-fluorocyclopropyl)(3-(6-(5-methoxypyrazin-2-yl)pyrrolo[1,2-b]pyridazin-4-yl)-3,8-diazabicyclo[3.2.1]octan-8-yl)methanone]	7440	700	54.5	405
O=C([C@@H]1C[C@H]1F)N1C2CCC1CN(c1ncnn3cc(-c4ccnc(C(F)F)c4)cc13)C2 [Example 93, (3-(6-(2-(difluoromethyl)pyridin-4-yl)pyrrolo[2,1-f][1,2,4]triazin-4-yl)-3,8-diazabicyclo[3.2.1]octan-8-yl)((1S,2R)-2-fluorocyclopropyl)methanone]	3300	591	29.2	386
